Laboratory results: a melting point compilation (Tetko et al.; mined from patent text by program, amines drawn as free bases though some values may be those of a salt)

| SMILES | melting point [°C] |
| --- | --- |
| COc1cccc(Oc2c(NS(=O)(=O)c3ccc(C(C)(C)C)cc3)ncnc2OCc2ccccn2)c1 | 206 to 208 |
| CSc1c(S)c(SC)c(SC)c(SC)c1SC | 60 |
| CCc1nc2c(OCc3ccccc3)cc(Br)cc2n1C | 111 to 115 |
| N#Cc1nn(-c2c(Cl)cc(C(F)(F)F)cc2Cl)c(N)c1-c1cc(Cl)cc(Cl)c1 | 228 to 230 |
| O=c1oc(-c2cccc(-c3ccccc3)c2)cc(O)c1Sc1ccccc1CC1CC1 | 88 |
| CCC(SN(C(=O)NC(=O)c1c(F)cccc1F)c1ccc(Oc2ccc(C(F)(F)F)cc2Cl)cc1F)C(=O)NC (centres undefined) | 136 to 138 |
| Cn1c(=O)c2c(ncn2CCCC#N)n(C)c1=O | 146 to 150 |
| CC(=O)NC[C@@H]1C[C@H]1c1cccc2c1C[C@@H](CCCCc1ccccc1)O2 | 65 to 66 |
| CC(=O)OC1NC(=O)C2=C1c1ccc(Cl)cc1C(c1ccccc1Cl)=NC2 (centres undefined) | 219 to 221 |
| Cc1cc(CO)ccc1NC(=O)CN(C(=O)OC(C)(C)C)c1ccc(F)c(F)c1 | 134 to 136 |
| S=C(NCN1CCOCC1)C(c1ccccc1)c1ccccn1 (centres undefined) | 128 to 130 |
| CCOC(=O)c1c(C)nc2sc3c(c2c1-c1ccccc1)CCCC3 | 118 to 120 |
| COC1=C(OC)C(=O)C(CN2CCOCC2)=C(C)C1=O | 60 to 62 |
| O=C(NCCCn1cnc(-c2ccccc2)c1)c1ccc(Cl)cc1 | 103 to 105 |
| CCOC(=O)c1c(C)nc(N2CCCCC2)c2nnn(CC)c12 | 45 to 47 |
| O=C1CC(C(F)(F)F)Oc2cc(Cl)c(Cl)cc21 (centres undefined) | 94.5 to 97 |
| O=C(O)CCc1ccc(SCCNS(=O)(=O)c2ccc(Cl)cc2)cc1 | 117 to 119 |
| O=C(O)COc1cc2c(c(Cl)c1Cl)C(=NO)C1(CCCC1)C2 | 228 |
| Oc1ccc(-c2nnc(CCCCCc3ccccc3)o2)cc1 | 118 to 123 |
| CC[C@@H]1O[C@](/C=C/C2CC2)(C(F)(F)F)c2c(ccc3c2OCO3)NC1=O (relative stereo) | 188 to 190 |
| O=C(NCc1ccccc1)c1cnc(-c2ccccc2)nc1S | 189 to 193 |
| CN(C)C(=S)Oc1ccc2ncc([N+](=O)[O-])c(-c3ccccc3)c2c1 | 205 to 208 |

| SMILES | melting point [°C] |
| --- | --- |
| Cc1c(Cc2cccc(C(F)(F)F)c2)oc2c(-c3cc(C(=O)NCCO)ccn3)cccc12 | 205 to 206 |
| CC(C)Oc1ccc(Oc2ccc3c(c2)c(C(=O)O)c(CC(=O)O)n3-c2ccc(C(C)C)cc2)cc1 | 205 to 210 |
| Nc1c(F)c(N2CCC3(CC3N)C2)c(F)c2c1c(=O)c(C(=O)O)cn2[C@@H]1C[C@@H]1F (some centres undefined) | 180 to 181 |
| CN(C)C=C(C(=O)c1ccc(Cl)cc1Cl)n1cncn1 | 173 |
| COc1ccc(CC#Cc2ccc3c(c2)c(=O)n(Cc2ccccc2)c2nncn32)cc1 | 267 |
| Nc1cc(N2CCOCC2)ccc1[N+](=O)[O-] | 177 to 178 |
| CN1CC=C(C(=O)N2c3ccccc3NC(=O)c3ccccc32)CC1 | 233 to 234 |
| CC(Cl)(Cl)C(NC(=O)c1cc(F)cc(F)c1)NC(=NC#N)Nc1ccc(Cl)nc1 (centres undefined) | 195 to 196 |
| COc1cc(NNc2nccc(Nc3ccc(N(C)C)cc3)n2)cc(OC)c1OC | 212 |
| O=C(c1ccccc1)c1ccc(Cl)cc1Cl | 41 to 43 |
| c1ccc(CNc2ccnc3ccccc23)cc1 | 132 |
| CCCCC(CCC)c1ccc2[nH]c3cnc(C(=O)OCC)c(C)c3c2c1 (centres undefined) | 225 to 228 |
| CCCCCCCCCCCCNC(=O)CCNc1cccc(O)c1 | < 40 |
| CCOC(=O)C1=Cc2cc(Cl)cc(C#CCCCCl)c2OC1C(F)(F)F (centres undefined) | 84.8 to 85.9 |
| CCC=C1C([N+](=O)[O-])C2SCCCN2C(=O)N1C (centres undefined) | 155 to 156 |
| COc1ccc(-c2nc(-c3ccccc3)no2)cc1 | 97 to 98 |
| CC(=O)OCc1ccc(C(=O)O)cc1 | 120 to 123 |
| COC(=O)CCCc1ccc(S(=O)(=O)Nc2ccccc2)cn1 | 79 to 80 |
| N#Cc1ccc(OCCCCCCl)cc1 | 47 |
| CC(C)Cn1c(CNC(=O)OC(C)(C)C)c(-c2ccc(F)cc2)c2cc(OCc3ccccc3)ccc2c1=O | 184 to 185 |
| CN(C)c1ccc(-c2cc3nccnc3[nH]2)cc1CCC(=O)O | 269 to 271 |
| CSc1ccc2c(c1)CCN2C(=O)Nc1cccnc1 | 160 to 162 |

| SMILES | melting point [°C] |
| --- | --- |
| CCC(C)S(=O)(=O)NC(=O)Nc1ccc(Cl)cc1 (centres undefined) | 172 to 174 |
| CC(C)N(CCC(CCN(C(C)C)C(C)C)(C(N)=O)c1ccc(Cl)cc1)C(C)C | 113 to 115 |
| Cc1csn(-c2ccc(Cl)c(Cl)c2)c1=O | 160 to 161 |
| COC(=O)N(CC(=O)O)C(=O)c1c(Cl)ccc2c(C(F)(F)F)c(OC)ccc12 | 162 to 165 |
| CCCCCCCCCCCCCCCCn1c(-c2ccc(Cl)c(N)c2)nnc1-c1ccc(Cl)c(N)c1 | 88 to 90 |
| C[C@@H]1Cc2cc([N+](=O)[O-])sc2[C@H](C)N1CCNC(=O)c1ccc([N+](=O)[O-])cc1 (relative stereo) | 155 to 156 |
| O=c1[nH]c(Cl)nc2ccccc12 | 251 to 252 |
| O=C(Nc1ccc(C(=O)N2C[C@@H]3C[C@H](O)CN3c3ccccc32)cc1)c1ccccc1-c1ccccc1 | 164 to 165 |
| O=C(OCc1ccccc1)c1ccc(OCc2cccc(COc3ccc(C(=O)OCc4ccccc4)cc3)c2)cc1 | 92.5 to 93.8 |
| CCCc1c[nH]cc2c(=O)n(-c3ccc(OC)cc3)nc1-2 | 165 |
| Cn1nnnc1SCCCCSC1=Nc2ccccc2C(=O)NN1 | 94 to 95 |
| N#CSc1ccc(SCc2ncon2)cc1 | 78 |
| COc1ccc(Nc2ncc3cc(-c4c(Cl)cccc4Cl)c(=O)n(C)c3n2)cn1 | 233 to 235 |
| COCc1cc2c(N=C=S)cccc2cn1 | 88 |
| CC1=CC2(C=C3CCC4C5CCC(=O)C5(C)CCC4C13C)OCCO2 (centres undefined) | 159 |
| CCOC(=O)c1c(CCl)nc2sc(C)c(C)c2c1-c1ccc(Cl)cc1 | 132 to 144 |
| CCCn1nc(OCc2ccc3ccccc3n2)cc1C(=O)OC | 71 to 72 |
| CC(=O)N1CCc2ccc(SCc3ccccc3)c(N)c2C1 | 133 to 136 |
| COc1cc(OC)nc(NC(=O)NS(=O)(=O)c2ccccc2OS(=O)(=O)N(C)C)n1 | 165 to 168 |
| CCn1c(=O)sc2cc(N3C[C@H](C(=O)NC)OC3=O)ccc21 | 227 to 229 |
| O=Cc1cn(-c2ccccc2)nc1O | 196 to 197 |
| O=C(O)c1ccc(C(=O)N2Cc3cccn3Cc3ccccc32)c(Cl)c1 | 198 to 199 |

Results, then the molecule that gave them:

| melting point [°C] | SMILES |
| --- | --- |
| 159 to 161 | COC(=O)COc1ccc(S(=O)(=O)c2ccc(O)cc2)cc1 |
| 168 to 169 | CS(=O)(=O)N(CC1CCCCC1)CC(O)(Cn1cncn1)c1ccc(Cl)cc1Cl (centres undefined) |
| 160 to 161 | COC(=O)c1ccc(NC(=O)c2ccccc2-c2ccccc2)cc1 |
| 84 | CCC[C@H](NC(=O)Cc1cc(C)sc1C)C(=O)Nc1ncc(-c2ccccc2COCC)s1 |
| 78 | O=C(c1ccc(Cl)cc1)C1(n2cncn2)CC1 |
| 153 to 155 | CCC(=O)Nc1nc(CC(=O)N(C)c2ccc(Cl)cc2)cs1 |
| 80 to 83 | N#CCc1cn(Nc2ccncc2)c2ccccc12 |
| 112 to 113 | CCCOc1nn(-c2ccc(C(F)(F)F)cn2)cc1CCCOc1ccc(CCC(=O)O)c(OCC)c1 |
| 159 to 161 | CN1CCN(c2nn(S(=O)(=O)c3ccccc3)c3cc(F)ccc23)CC1 |
| 68 to 70 | CNC(=O)CCc1ccc2cc(O[C@@H](C)[C@H](O)CCc3cccnc3)ccc2c1 |
| 152 to 154 | COC(=O)CCC/C=C(/c1cc(C)c2on(C)c(=O)c2c1)c1cc(C)c2oc(=O)n(C)c2c1 |
| 101 to 102 | CC(C)=CCOc1ccc(C(=O)C=Cc2c(Cl)cccc2Cl)c(O)c1 |
| 124 to 125 | O=C(O)CCCCC[C@@H]1C[C@@H](NS(=O)(=O)c2ccc(Cl)cc2)CN1S(=O)(=O)c1ccc(Cl)cc1 |
| 93 | COc1cc(Nc2nccc(-c3ccc(N4CCCCC4CO)nc3)n2)cc(OC)c1OC (centres undefined) |
| 134 to 136 | Clc1ccc(C2OC3(CCN(Cc4ccccc4)CC3)N3CCCCC23)cc1 (centres undefined) |
| 228 to 229 | Nc1nnc(-c2ccc(Cl)c(C(F)(F)F)c2)c(N)n1 |
| 111 to 113 | COc1cccc(COc2cncc(Cl)n2)c1 |

| melting point [°C] | SMILES |
| --- | --- |
| 96 to 99 | Cn1c(-c2ccc(N3CCOCC3)cc2)cnc1[C@H](Cc1ccccn1)N(C=O)c1nc2cc(Cl)ccc2s1 |
| 175 to 176 | CN(C)C(=O)NCc1cccc(-c2nc(=O)c3ccccc3s2)n1 |
| 116 to 119 | CN1CCC(=C2c3ccc(Cl)cc3CCc3cccnc32)CC1 |
| 55 to 57 | CS(=O)(=O)CCOS(C)(=O)=O |
| 72.5 to 73.5 | CN(C)c1ccc(C2OC(C)(C)N=C2c2ccccc2Cl)cc1 (centres undefined) |
| 75 to 78 | COC1=C(OC)C(=O)C2=C(CCC(CCOc3ccc4c(c3)OCO4)CC2)C1=O |
| 141 to 143 | ClCCCOc1ccc(-c2nc3ccccc3s2)cc1 |
| 212 to 214 | CCN1C(=O)CCCc2cc(Nc3ncc(Cl)c(Nc4ccc(N5CCOCC5)cc4OC)n3)c(OC)cc21 |
| 187 to 190 | CCS(=O)(=O)CCC(=O)NNC(=O)N1Cc2ccccc2Oc2ccc(OC)cc21 |
| 197 to 199 | COc1ccc(-c2ccc(C(=O)Nc3ccc4nc(CN5CCCC5)ccc4c3)cc2)cc1 |
| 190 to 191 | O=C1N=CC(OCC2CCC2)(C(F)(F)F)c2cc(F)ccc2N1 (centres undefined) |
| > 250 | COc1ccccc1C(=O)Nc1nc(-c2ccccc2)c(-c2ccc(=O)n(C(C)C)n2)s1 |
| 164 | CC(C)n1cc(-c2cccc(Cl)c2)c2ncccc2c1=O |
| 142 | COc1cc(-c2nc3ccc(OCCCN(C)C)cc3n2Cc2ccccc2C(F)(F)F)cc(OC)c1OC |
| 214 to 216 | COc1ccc(C(=O)Oc2ccc(C(=O)O)cc2CO)cc1C12CC3CC(CC(C3)C1)C2 |
| 84.5 to 86 | S=C=Nc1ccc(Sc2nc3ccccc3s2)cc1 |
